According to patent US20240238284A1, “COMPOUNDS AND COMPOSITIONS FOR THE TREATMENT OF MPNST” (Novartis AG, priority 2021, published 2024):

Columns and labels:
[1] = tested on: Rb-positive cell lines derived from diverse cancer types; test: Rb phosphorylation and cell cycle progression in Rb-positive cell lines; type: cell-based; conditions: more than 40 Rb-positive cell lines
NF1-MPNST PDX models = test: tumor growth in NF1-MPNST patient-derived xenograft (PDX) models in NRG mice; type: in vivo; conditions: oral gavage, TNO155 7.5 mg/kg, ribociclib 75 mg/kg once daily, up to 42 days
Experimental: The PDX models of Example 1 were developed and characterized according to Dehrner, et al., JCI Insight 2021: 6(6):e146351 and Pollard, K., et al., Sci Data, 2020; 7:184). NRG (NOD-Rag1^null IL 2rg^null, NOD rag gamma) mice are used for all experiments.
Tumor response, survival and toxicity data were collected and analyzed. To form tumors, 1-2 million NF1-MPNST PDX-derived cells (JH-2-031, JH-2-079, JH-2-002, WU-225, WU-386, or WU-545)) in 50% Matrigel (BD Biosciences) were injected subcutaneously in 4- to 6-week-old female NRG mice. The tumors were measured and mice weighed twice weekly once tumors began to form. Drugs were given beginning when tumors reached 150-200 mm^3. Mice were treated with vehicle, single agent (A or B or C) or combination (A+B or B+C) for up to 42 days. Each group consisted of three to five mice. Tumor volume was calculated using the formula: V=L×W2 (π/6), where L=longest diameter and W=width.

p-ERK in WU-386 tumors = test: pharmacodynamic p-ERK levels in WU-386 PDX tumors; type: in vivo, mice; conditions: WU-386 tumors collected 4-hour post end-point treatment (4 weeks)
[2] = tested on: ten native NF1-MPNST cell lines; test: cell number by trypan blue exclusion, native NF1-MPNST cell lines; type: cell-based; conditions: TNO155 0.3, 1, 3 μM; ribociclib 1, 3 μM; about 1 week
Source text: (§1) Cell numbers were counted using trypan blue exclusion assay (Sigma-Aldrich) and normalized to the DMSO control.

[3] = tested on: trametinib resistant lines (ST8814Res and NF90.8Res); test: cell number by trypan blue exclusion, trametinib resistant lines; type: cell-based; conditions: TNO155 0.3, 1, 3 μM, ribociclib 1, 3 μM, about 1 week
Source text: as §1

## CN(C)C(=O)c1cc2cnc(Nc3ccc(N4CCNCC4)cn3)nc2n1C1CCCC1 [Ribociclib, 7-cyclopentyl-N,N-dimethyl-2-((5-(piperazin-1-yl)pyridin-2-yl)amino)-7H-pyrrolo[2,3-d]pyrimidine-6-carboxamide]
[1]
  Retinoblastoma protein (Rb) phosphorylation and G1 to S phase cell cycle progression: inhibited Retinoblastoma protein (Rb) phosphorylation and interfered with G1 to S phase cell cycle progression

## C[C@@H]1OCC2(CCN(c3cnc(Sc4ccnc(N)c4Cl)c(N)n3)CC2)[C@@H]1N [TNO155, (3S,4S)-8-(6-amino-5-((2-amino-3-chloropyridin-4-yl)thio)pyrazin-2-yl)-3-methyl-2-oxa-8-azaspiro[4.5]decan-4-amine]
NF1-MPNST PDX models
  anti-tumor activity / tumor growth inhibition in PDX models: substantial anti-tumor activity as a single agent
p-ERK in WU-386 tumors
  p-ERK levels in tumors: decrease in p-ERK levels
[2]
  cell number response normalized to DMSO control: partial sensitivity
[3]
  cell number response normalized to DMSO control: limited activity
